From BindingDB's records for doi:10.1038/305140a0 (College of France, 1983)
Where “and” joins values, the source holds several entries; their conditions need not be identical. Equal entries are not always repeated.

Molecular target: T1, 5-hydroxytryptamine receptor 1A (Rattus norvegicus, UniProt P19327)
T1 sequence (P19327 whole entry): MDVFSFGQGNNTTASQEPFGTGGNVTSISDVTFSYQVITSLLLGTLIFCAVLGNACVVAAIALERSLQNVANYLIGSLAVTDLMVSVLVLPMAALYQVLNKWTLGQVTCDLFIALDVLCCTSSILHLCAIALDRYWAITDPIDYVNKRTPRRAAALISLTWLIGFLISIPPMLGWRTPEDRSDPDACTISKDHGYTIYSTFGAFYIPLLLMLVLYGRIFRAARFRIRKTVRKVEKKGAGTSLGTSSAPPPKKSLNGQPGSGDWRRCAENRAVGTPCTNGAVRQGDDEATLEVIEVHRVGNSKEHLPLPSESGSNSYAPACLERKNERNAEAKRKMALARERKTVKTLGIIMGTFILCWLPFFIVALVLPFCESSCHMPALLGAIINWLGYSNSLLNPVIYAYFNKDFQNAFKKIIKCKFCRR

SMILES	Ki
CN1C[C@H](CNC(=O)OCc2ccccc2)C[C@@H]2c3cccc4c3c(cn4C)C[C@H]21 [METERGOLINE]	0.0347 µM and 0.245 µM
CN(C)CCCSc1ccccc1NC(=O)/C=C/c1ccccc1 [CINANSERIN]	1.1 µM and > 10 µM
CN1CCC(=C2c3ccccc3CCc3sccc32)CC1 [NSC_27400]	2.19 µM and 6.17 µM
COc1ccc2[nH]cc(CCN(C)C)c2c1 [3-(2-DIMETHYLAMINOETHYL)-5-METHOXYINDOLE]	0.0398 µM and 0.288 µM
CC(CN1c2ccccc2Sc2ccccc21)N(C)C (stereo not drawn) [N,N,alpha-trimethyl-10H-phenothiazine-10-ethanamine]	> 10 µM
NCCc1ccc(O)c(O)c1	> 10 µM
CN1C2CCC1CC(OC(c1ccccc1)c1ccccc1)C2 (stereo not given)	> 10 µM
NCCc1c[nH]c2ccccc12 [1H-indole-3-ethanamine]	3.72 µM and > 10 µM
O=C(c1ccc(F)cc1)C1CCN(CCn2c(=O)[nH]c3ccccc3c2=O)CC1 [3-(2-{4-[(4-fluorophenyl)carbonyl]piperidin-1-yl}ethyl)-1,2,3,4-tetrahydroquinazoline-2,4-dione]	4.17 µM and > 10 µM
CN(C)CCCN1c2ccccc2CCc2ccccc21	> 10 µM
